# Measured values taken from patent publication US9890133B2 (priority 2011, dated 2018).
# Test: in vitro
# Details: human
SMILES,CC50 [µg/mL],CC50 (Picorana CC50) [µg/mL]
"COc1cc(C(=O)NC23C(=O)c4c(N)cccc4C2(O)Oc2cc(C(C)C)ccc23)nc2ccccc12 (stereo not shown) [Example 247, N-(1-Amino-4b-hydroxy-7-isopropyl-10-oxo-9b,10-dihydro-4bH-benzo[d]indeno[1,2-b]furan-9b-yl)-4-methoxyquinoline-2-carboxamide]",> 10,20
"CC(C)c1ccc2c(c1)OC1(O)c3cccc(NCc4ccccc4)c3C(=O)C21O (stereo not shown) [Example 132, 1-(Benzylamino)-4b,9b-dihydroxy-7-isopropyl-4bH-indeno[1,2-b]benzofuran-10(9bH)-one]",–,0.72
"CC(C)NC(=O)NC12C(=O)c3c([N+](=O)[O-])cccc3C1(O)Oc1cc(C(C)C)ccc12 (stereo not shown) [Example 76, 1-(4b-Hydroxy-7-isopropyl-1-nitro-10-oxo-4b,10-dihydro-5-oxa-indeno[2,1-a]inden-9b-yl)-3-isopropyl-urea]",–,> 50
CC(C)C(=O)NC12Oc3cc(C(C)C)ccc3C1(NC(=O)C(C)C)C(=O)c1ccccc12 (stereo not shown) [Example 125],–,45.5
"Cc1c(C(=O)NC23C(=O)c4c(N)cccc4C2(O)Oc2cc(C(C)C)ccc23)cnc2ccnn12 (stereo not shown) [Example 289, N-(1-Amino-4b-hydroxy-7-isopropyl-10-oxo-9b,10-dihydro-4bH-indeno[1,2-b]benzofuran-9b-yl)-7-methylpyrazolo[1,5-a]pyrimidine-6-carboxamide]",> 10,–
"CO/N=C1/c2ccccc2C2(NOC)Oc3cc(C(C)C)ccc3C12O (stereo not shown) [Example 128, 9b-Hydroxy-7-isopropyl-4b-(methoxyamino)-4bH-indeno[1,2-b]benzofuran-10(9bH)-one O-methyl oxime]",–,37.3
"CC(C)c1ccc2c(c1)OC1(O)c3cccc(N)c3C(=O)C21NS(C)(=O)=O (stereo not shown) [Example 168, N-(1-Amino-4b-hydroxy-7-isopropyl-10-oxo-9b,10-dihydro-4bH-benzo[d]indeno[1,2-b]furan-9b-yl)methanesulfonamide]",> 10,–
"CC(=O)NC12C(=O)c3ccccc3C1(OC(=O)Oc1ccccc1)Oc1cc(C(C)C)ccc12 (stereo not shown) [Example 121, Carbonic acid 9b-acetylamino-7-isopropyl-10-oxo-9b,10-dihydro-5-oxa-indeno[2,1-a]inden-4b-yl ester phenyl ester]",–,> 50
"CC(C)c1ccc2c(c1)OC1(O)c3cccc(N)c3C(=O)C21NC(=O)c1cnccc1Cl (stereo not shown) [Example 254, N-(1-Amino-4b-hydroxy-7-isopropyl-10-oxo-9b,10-dihydro-4bH-indeno[1,2-b]benzofuran-9b-yl)-4-chloronicotinamide]",> 10,–
"CC(C)c1ccc2c(c1)OC1(O)c3cccnc3C(=O)C21O (stereo not shown) [Example 126, 4b,9b-Dihydroxy-7-isopropyl-4bH-benzofuro[2′,3′:3,4]cyclopenta[1,2-b]pyridin-10(9bH)-one]",–,47.1
"CC(=O)Nc1ccc([N+](=O)[O-])c2c1C(=O)C1(N)c3ccc(C(C)C)cc3OC21O (stereo not shown) [Example 109, N-(9b-Amino-4b-hydroxy-7-isopropyl-4-nitro-10-oxo-9b,10-dihydro-4bH-5-oxa-indeno[2,1-a]inden-1-yl)-acetamide]",–,> 50
"CC(C)c1ccc2c(c1)OC1(O)c3cccc(N)c3C(=O)C21NC(=O)c1sc2cc(F)ccc2c1Cl (stereo not shown) [Example 269, N-(1-Amino-4b-hydroxy-7-isopropyl-10-oxo-9b,10-dihydro-4bH-indeno[1,2-b]benzofuran-9b-yl)-3-chloro-6-fluorobenzo[b]thiophene-2-carboxamide]",> 10,–
"CCCCNC(=O)NC12C(=O)c3c(N)cccc3C1(O)Oc1cc(C(C)C)ccc12 (stereo not shown) [Example 163, 1-(1-Amino-4b-hydroxy-7-isopropyl-10-oxo-9b,10-dihydro-4bH-indeno[1,2-b]benzofuran-9b-yl)-3-butylurea]",> 10,–
"CC(C)c1ccc2c(c1)OC1(O)c3cccc(N)c3C(=O)C21NC(=O)Nc1ccc(F)cc1 (stereo not shown) [Example 164, 1-(1-Amino-4b-hydroxy-7-isopropyl-10-oxo-9b,10-dihydro-4bH-indeno[1,2-b]benzofuran-9b-yl)-3-(4-fluorophenyl)urea]",> 10,–
"COc1ccc(CN2CCN(c3cccc4c3C(=O)C3(O)c5ccc(C(C)C)cc5OC43O)CC2)cc1 (stereo not shown) [Example 149, 4b,9b-Dihydroxy-7-isopropyl-1-(4-(4-methoxybenzyl)piperazin-1-yl)-4bH-benzo[d]indeno[1,2-b]furan-10(9bH)-one]",–,8.48
"CC(=O)OC12Oc3cc(C(C)C)ccc3C1(OC(C)=O)C(O)c1ccccc12 (stereo not shown) [Example 127, 10-Hydroxy-7-isopropyl-9b,10-dihydro-4bH-indeno[1,2-b]benzofurane-4b,9b-diyl diacetate]",–,37.6
"CC(C)c1ccc2c(c1)OC1(O)c3ccc(N4CCC(O)CC4)cc3C(=O)C21O (stereo not shown) [Example 146, 4b,9b-Dihydroxy-7-isopropyl-2-(hydroxypiperidinyl)-4bH-benzo[d]indeno[1,2-b]furan-10(9bH)-one]",–,1.53
CCNC(=O)NC12C(=O)c3c(N)cccc3C1(O)Oc1cc(C(C)C)ccc12 (stereo not shown) [Example 173],> 10,–
"CO[C@@]12Oc3cc(C(C)C)ccc3[C@]1(NC(N)=O)C(=O)c1ccccc12 [Example 100, 1-((4bS,9bS)-7-Isopropyl-4b-methoxy-10-oxo-9b,10-dihydro-4bH-indeno[1,2-b]benzofuran-9b-yl)urea]",–,40.6
"CC(C)c1ccc2c(c1)OC1(C)c3ccccc3C(=O)C21O (stereo not shown) [Example 134, 9b-Hydroxy-7-isopropyl-4b-methyl-4bH-indeno[1,2-b]benzofuran-10(9bH)-one]",–,6.69
"CC(C)c1ccc2c(c1)OC1(OCc3ccccc3)c3ccccc3C(=O)C21O (stereo not shown) [Example 120, 4b-(Benzyloxy)-9b-hydroxy-7-isopropyl-4bH-indeno[1,2-b]benzofuran-10(9bH)-one]",–,8.16
"CC(C)c1cc(C(C)C)c2c(c1)C1(O)C(=O)c3c(N)cccc3C1(O)O2 (stereo not shown) [Example 157, 1-Amino-4b,9b-dihydroxy-6,8-diisopropyl-4bH-benzo[d]indeno[1,2-b]furan-10(9bH)-one]",28.5,> 100
"CC(C)c1ccc2c(c1)OC1(O)c3ccccc3C(=O)C21NC(=O)c1ccncn1 (stereo not shown) [Example 219, N-(4b-Hydroxy-7-isopropyl-10-oxo-9b,10-dihydro-4bH-indeno[1,2-b]benzofuran-9b-yl)pyrimidine-4-carboxamide]",> 10,45.1
"COc1cc2c(cc1OC)C1(O)C(=O)c3ccccc3C1(O)N2C(=O)C(C)C (stereo not shown) [Example 138, 4b,9b-Dihydroxy-5-isobutyryl-7,8-dimethoxy-5,9b-dihydro-4bH-indeno[1,2-b]indol-10-one]",–,38.8
"CC(C)c1ccc2c(c1)OC1(O)c3ccccc3C(=O)C21NC(=O)c1cc(-c2ccccc2)n[nH]1 (stereo not shown) [Example 229, N-(4b-hydroxy-7-isopropyl-10-oxo-9b,10-dihydro-4bH-indeno[1,2-b]benzofuran-9b-yl)-3-phenyl-1H-pyrazole-5-carboxamide]",4.51,8.63
"COc1ccc(CN2CCN(c3ccc4c(c3)C(=O)C3(O)c5ccc(C(C)C)cc5OC43O)CC2)cc1 (stereo not shown) [Example 148, 4b,9b-Dihydroxy-7-isopropyl-2-(4-(4-methoxybenzyl)piperazin-1-yl)-4bH-benzo[d]indeno[1,2-b]furan-10(9bH)-one]",–,1.72
"CC(C)c1ccc2c(c1)OC1(O)c3ccc([N+](=O)[O-])c(N)c3C(=O)C21O (stereo not shown) [Example 60, 1-Amino-4b,9b-dihydroxy-7-isopropyl-2-nitro-4bH-indeno[1,2-b]benzofuran-10(9bH)-one]",–,10.6
